Where “and” joins values, the source holds several entries; their conditions need not be identical. Equal entries are not always repeated. Toxic doses and inconclusive results are not listed.
System: Gardner 6C3HED lymphosarcoma ip, C3AKF1 mice, survival T/C
Experiment: NCI In Vivo Anticancer Drug Screen. Data for tumor model Lymphosarcoma Gardner 6C3HED (intraperitoneal) in C3AKF1 (CHKRF1) mice
Conditions: endpoint: survival time, mean or median, higher = longer survival
Procedure: The antitumor activity of compounds was measured in mice bearing transplantable tumors. Survival or tumor size were measured and the results are expressed as the measurement made in the treated group (T) divided by the measurement made in the vehicle treated control group (C). The tumor model used in this assay is Lymphosarcoma Gardner 6C3HED (intraperitoneal) in C3AKF1 (CHKRF1) mice

[1] = dose: 31.3 mg/kg/injection, schedule: Q01DX010 (ip), vehicle: saline
[2] = dose: 62.5 mg/kg/injection, schedule: Q01DX010 (ip), vehicle: saline
[3] = dose: 1.0 mg/kg/injection, schedule: Q01DX010 (ip), vehicle: saline
[4] = dose: 2.0 mg/kg/injection, schedule: Q01DX010 (ip), vehicle: saline
[5] = dose: 4.0 mg/kg/injection, schedule: Q01DX010 (ip), vehicle: saline
[6] = dose: 8.0 mg/kg/injection, schedule: Q01DX010 (ip), vehicle: saline
[7] = dose: 6.0 mg/kg/injection, schedule: Q01DX010 (ip), vehicle: saline
[8] = dose: 12.0 mg/kg/injection, schedule: Q01DX010 (ip), vehicle: saline
[9] = dose: 18.0 mg/kg/injection, schedule: Q01DX010 (ip), vehicle: saline
[10] = dose: 25.0 mg/kg/injection, schedule: Q01DX010 (ip), vehicle: saline
[11] = dose: 50.0 mg/kg/injection, schedule: Q01DX010 (ip), vehicle: saline
[12] = dose: 12.5 mg/kg/injection, schedule: Q01DX010 (sc), vehicle: steriod suspending solution
[13] = dose: 25.0 mg/kg/injection, schedule: Q01DX010 (sc), vehicle: steriod suspending solution
[14] = dose: 50.0 mg/kg/injection, schedule: Q01DX010 (sc), vehicle: steriod suspending solution
[15] = dose: 16.0 mg/kg/injection, schedule: Q01DX010 (ip), vehicle: saline
[16] = dose: 40.0 mg/kg/injection, schedule: Q01DX010 (ip), vehicle: saline
[17] = dose: 60.0 mg/kg/injection, schedule: Q01DX010 (ip), vehicle: saline
[18] = dose: 2.0 mg/kg/injection, schedule: Q01DX010 (ip), vehicle: other
[19] = dose: 4.0 mg/kg/injection, schedule: Q01DX010 (ip), vehicle: other
[20] = dose: 8.0 mg/kg/injection, schedule: Q01DX010 (ip), vehicle: other
[21] = dose: 16.0 mg/kg/injection, schedule: Q01DX010 (ip), vehicle: other
[22] = dose: 32.0 mg/kg/injection, schedule: Q01DX010 (ip), vehicle: other
[23] = dose: 125.0 mg/kg/injection, schedule: Q01DX010 (ip), vehicle: saline
[24] = dose: 32.0 mg/kg/injection, schedule: Q01DX010 (ip), vehicle: saline
[25] = dose: 64.0 mg/kg/injection, schedule: Q01DX010 (ip), vehicle: saline
[26] = dose: 5.0 mg/kg/injection, schedule: Q01DX010 (ip), vehicle: saline
[27] = dose: 10.0 mg/kg/injection, schedule: Q01DX010 (ip), vehicle: saline
[28] = dose: 20.0 mg/kg/injection, schedule: Q01DX010 (ip), vehicle: saline
[29] = dose: 250.0 mg/kg/injection, schedule: Q01DX010 (ip), vehicle: saline
[30] = dose: 500.0 mg/kg/injection, schedule: Q01DX010 (ip), vehicle: saline

CCOC(=O)NP(=O)(N1CC1(C)C)N1CC1(C)C (centres undefined)
T/C [1]: 103 % of control
T/C [2]: 111 % of control

CCN(CC)c1ccc2cc3ccc(=[N+](CC)CC)cc-3oc2c1
T/C [3]: 100 % of control and 109 % of control
T/C [4]: 100 % of control and 122 % of control
T/C [5]: 100 % of control and 104 % of control
T/C [6]: 95 % of control and 100 % of control

NC(=O)N(CCCl)N=O
T/C (dose: 0.5 mg/kg/injection, schedule: Q01DX010 (ip), vehicle: saline): 150 % of control and 204 % of control
T/C [3]: 250 % of control and 254 % of control
T/C [5]: 86 % of control

O=C(Nc1ccc(C2=NCCN2)cc1)c1ccc(C(=O)Nc2ccc(C3=NCCN3)cc2)c([N+](=O)[O-])c1
T/C [7]: 218 % of control and 272 % of control
T/C [6]: 300 % of control
T/C [8]: 268 % of control and 300 % of control
T/C [9]: 163 % of control and 259 % of control

O=C1C(NC(=O)C2CCCCC2)=C(N2CC2)C(=O)C(NC(=O)C2CCCCC2)=C1N1CC1
T/C [10]: 92 % of control
T/C [11]: 92 % of control

CC/C(=C(/CC)c1ccc(O)cc1)c1ccc(O)cc1
T/C [12]: 104 % of control and 105 % of control
T/C [13]: 100 % of control and 105 % of control
T/C [14]: 95 % of control and 100 % of control
T/C (dose: 100.0 mg/kg/injection, schedule: Q01DX010 (sc), vehicle: steriod suspending solution): 95 % of control and 100 % of control

N=[N+]=CC(=O)OCC(N)C(=O)O (centres undefined)
T/C (dose: 6.25 mg/kg/injection, schedule: Q01DX010 (ip), vehicle: saline): 150 % of control
T/C [10]: 95 % of control

O=C(Nc1ccc(NC2=NCCN2)cc1)c1ccc(C(=O)Nc2ccc(NC3=NCCN3)cc2)cc1
T/C [4]: 180 % of control
T/C [5]: 195 % of control and 265 % of control
T/C [6]: 190 % of control
T/C [15]: 115 % of control

CC(=O)O[C@]1(C(C)=O)CC[C@H]2[C@@H]3C[C@H](C)C4=CC(=O)C=C[C@]4(C)[C@@]3(F)[C@@H](O)C[C@@]21C
T/C [12]: 111 % of control
T/C [13]: 92 % of control
T/C [14]: 88 % of control

CN(N=O)C(=O)NC(C=O)C(O)C(O)C(O)CO (centres undefined)
T/C [16]: 300 % of control
T/C [17]: 300 % of control
T/C (dose: 135.0 mg/kg/injection, schedule: Q01DX010 (ip), vehicle: saline): 95 % of control and 100 % of control

O=C(Nc1ccc(C2=NCCN2)cc1)c1ccc(C(=O)Nc2ccc(C3=NCCN3)cc2)c(Cl)c1
T/C [18]: 116 % of control
T/C [19]: 150 % of control and 159 % of control
T/C [20]: 225 % of control and 245 % of control
T/C [21]: 216 % of control and 268 % of control
T/C [22]: 191 % of control and 200 % of control

CCn1cnc2c(=S)nc[nH]c21
T/C (dose: 15.6 mg/kg/injection, schedule: Q01DX010 (ip), vehicle: saline): 91 % of control and 104 % of control
T/C [1]: 87 % of control and 89 % of control and 104 % of control
T/C [2]: 114 % of control
T/C [23]: 87 % of control and 104 % of control

O=C(Nc1ccc(C2=NCCN2)cc1)c1cccc(C(=O)Nc2ccc(C3=NCCN3)cc2)c1
T/C [6]: 183 % of control and 200 % of control
T/C [15]: 272 % of control and 300 % of control
T/C [24]: 279 % of control and 300 % of control
T/C [25]: 279 % of control and 290 % of control

Nc1nc2n[nH]nc2c(=O)[nH]1
T/C (dose: 25.0 mg/kg/injection, schedule: Q01DX010 (ip), vehicle: alkali diluted with saline): 115 % of control
T/C (dose: 50.0 mg/kg/injection, schedule: Q01DX010 (ip), vehicle: alkali diluted with saline): 100 % of control and 120 % of control

O=C(Nc1ccc(C2=NCCCN2)cc1)c1ccc(C(=O)Nc2ccc(C3=NCCCN3)cc2)cc1
T/C (dose: 1.0 mg/kg/injection, schedule: Q01DX010 (ip), vehicle: other): 227 % of control and 241 % of control
T/C [18]: 300 % of control
T/C [19]: 86 % of control

O=C(Nc1ccc(C2=NCCN2)cc1)c1ccc(C(=O)Nc2ccc(C3=NCCN3)cc2)cc1
T/C [19]: 179 % of control and 186 % of control
T/C [20]: 277 % of control and 300 % of control
T/C [21]: 229 % of control and 300 % of control
T/C [22]: 175 % of control and 200 % of control
T/C (dose: 64.0 mg/kg/injection, schedule: Q01DX010 (ip), vehicle: other): 166 % of control and 200 % of control

N#CCSc1ncnc2nc[nH]c12
T/C (dose: 15.0 mg/kg/injection, schedule: Q01DX010 (ip), vehicle: saline): 100 % of control and 111 % of control
T/C (dose: 30.0 mg/kg/injection, schedule: Q01DX010 (ip), vehicle: saline): 100 % of control
T/C [17]: 95 % of control and 114 % of control
T/C (dose: 120.0 mg/kg/injection, schedule: Q01DX010 (ip), vehicle: saline): 92 % of control and 95 % of control

C=CC(CN1CC1)OC(C)=O (centres undefined)
T/C [4]: 92 % of control

Cc1cc(N(CCCl)CCCl)ccc1N=Nc1ccccc1C(=O)O
T/C [26]: 109 % of control and 116 % of control
T/C [27]: 113 % of control
T/C [28]: 118 % of control

S=P(N1CC1)(N1CC1)N1CC1
T/C [3]: 115 % of control and 120 % of control
T/C [4]: 120 % of control
T/C [5]: 160 % of control
T/C [6]: 90 % of control and 110 % of control

Nc1ncnc2[nH]ncc12
T/C (dose: 1.5 mg/kg/injection, schedule: Q01DX010 (ip), vehicle: saline): 95 % of control and 110 % of control
T/C (dose: 3.0 mg/kg/injection, schedule: Q01DX010 (ip), vehicle: saline): 100 % of control and 104 % of control
T/C [7]: 95 % of control
T/C [8]: 95 % of control
T/C [15]: 90 % of control

CN(C)c1ccc(/C=C/c2ccnc3ccccc23)cc1
T/C [26]: 96 % of control
T/C [27]: 92 % of control
T/C [28]: 92 % of control

Nc1nc(=S)c2[nH]cnc2[nH]1
T/C (dose: 1.25 mg/kg/injection, schedule: Q01DX010 (ip), vehicle: other): 95 % of control and 100 % of control
T/C (dose: 1.25 mg/kg/injection, schedule: Q01DX010 (ip), vehicle: saline): 120 % of control
T/C (dose: 2.5 mg/kg/injection, schedule: Q01DX010 (ip), vehicle: other): 104 % of control
T/C (dose: 2.5 mg/kg/injection, schedule: Q01DX010 (ip), vehicle: saline): 100 % of control and 110 % of control
T/C (dose: 5.0 mg/kg/injection, schedule: Q01DX010 (ip), vehicle: other): 113 % of control
T/C [26]: 100 % of control and 105 % of control
T/C (dose: 10.0 mg/kg/injection, schedule: Q01DX010 (ip), vehicle: other): 95 % of control
T/C [27]: 100 % of control and 120 % of control

O=c1cn[nH]c(=O)[nH]1
T/C [2]: 100 % of control and 104 % of control
T/C [23]: 104 % of control
T/C [29]: 90 % of control and 95 % of control
T/C [30]: 90 % of control

OCC1OC(n2cnc3c(Cl)ncnc32)C(O)C1O (centres undefined)
T/C [2]: 95 % of control
T/C [23]: 90 % of control
T/C [29]: 90 % of control
T/C [30]: 90 % of control and 100 % of control

CS(=O)(=O)OCCN(CCOS(C)(=O)=O)c1ccc(N=O)cc1
T/C [3]: 107 % of control

Cn1c(N)nc2nc[nH]c2c1=S
T/C [27]: 96 % of control
T/C [28]: 96 % of control
T/C [16]: 107 % of control
T/C (dose: 80.0 mg/kg/injection, schedule: Q01DX010 (ip), vehicle: saline): 107 % of control

Nc1nc(SCc2ccccc2)c2[nH]cnc2n1
T/C [6]: 95 % of control and 100 % of control
T/C [15]: 95 % of control and 104 % of control
T/C [24]: 90 % of control and 91 % of control and 104 % of control
T/C [25]: 87 % of control and 100 % of control (2×)

C[C@@H]1C[C@@H]([C@H](O)CC2CC(=O)NC(=O)C2)C(=O)[C@@H](C)C1
T/C [26]: 95 % of control and 104 % of control
T/C [27]: 90 % of control and 100 % of control
T/C [28]: 91 % of control and 118 % of control

CCOC(N)=O
T/C [23]: 91 % of control and 100 % of control
T/C [30]: 95 % of control

C[n+]1c2ccccc2nc2c(N)cc(N)cc21
T/C [8]: 113 % of control
T/C [9]: 122 % of control
T/C [16]: 113 % of control

COS(C)(=O)=O
T/C (dose: 12.5 mg/kg/injection, schedule: Q01DX010 (ip), vehicle: saline): 111 % of control
T/C [11]: 300 % of control
T/C (dose: 100.0 mg/kg/injection, schedule: Q01DX010 (ip), vehicle: saline): 176 % of control

CC(CCC(C)OS(C)(=O)=O)OS(C)(=O)=O (centres undefined)
T/C [4]: 100 % of control
T/C [5]: 104 % of control
T/C [6]: 104 % of control
T/C [15]: 116 % of control

— PubChem BioAssay AID232 (DTP/NCI, 2004)
